Values quoted from earlier work, collected in patent US20250134923A1, “SUPERABSORBENT HYDROGELS WITH LIPASE INHIBITOR” (JUNION LABS PTE. LTD., priority 2021, published 2025).

System: fat absorption
Details: therapeutic doses (120 mg with meals)

## CCCCCCCCCCC[C@@H](C[C@@H]1OC(=O)[C@H]1CCCCCC)OC(=O)[C@H](CC(C)C)NC=O [Orlistat, (2S,3S,5S)-5-[(S)-2-formamido4-methyl-valeryloxy]-2-hexyl-3-hydroxy-hexadecanoic 1,3 acid lactone]
  additional caloric deficit: approximately 200 calories
  inhibition of fat absorption (of ingested fat): approximately 30%
